The values below come from patent US10710986B2, “PD-1/PD-L1 inhibitors” (Gilead Sciences, Inc., priority 2018, dated 2020).

Assay [1] deals with HBV-specific CD8^+ T cells. In words: IFN-γ and granzyme B production in HBV-specific CD8+ T cells from CHB patient PBMCs (7-day expansion and recall, flow cytometry). Format: cell-based, human. The procedure: PBMCs were isolated from whole blood using a standard Ficoll® Paque gradient. Briefly, 25-30 mL of blood was gently overlaid on top of 15 mL Ficoll® Paque Plus solution (GE Healthcare, Chicago, Ill.) in a 50 mL Falcon tube, and centrifuged in an Allegra X-14R (Beckman Coulter, Indianapolis, Ind.) at 520 g for 20 minutes at 25° C. […] Next, the cells were centrifuged at 520 g for 5 minutes and red blood cells (RBC) lysed for 5 minutes at room temperature using RBC Lysis Buffer (eBioscience, San Diego, Calif.). […] PBMCs were either subsequently used for the T cell expansion assay, or were cryopreserved with 10% DMSO in FBS before further use.
PBMCs were seeded at 2-4×10^5 cells/well in 96-well round bottom plates (Corning, N.Y.). […] PBMCs were incubated for 7 days at 37° C. with 5% CO2 in a humidified incubator. […] To inhibit protein transport, 1 μg/mL brefeldin. A solution (Sigma) was added to each well. After overnight incubation, cells were processed for immunostaining and flow cytometry as described herein.
Washed cells were resuspended in Live/Dead Aquamine Stain (Invitrogen) per manufacturer's instructions to determine the viability of the cells by flow cytometry. Live/Dead Aqua stained PBMCs were washed twice with FACS staining buffer (1% FBS in PBS), and then incubated with 50 μL of Fc blocking reagent (BD Biosciences, Franklin Lakes, N.J.) for 10 minutes at room temperature. A mixture of antibodies (50 μL/well) described in Table 6 were added to the blocking solution for surface staining, and PBMCs were incubated with the antibodies for 40 minutes at 4° C. […] Cells were washed twice with the permeabilization reagent included in the FoxP3 staining kit and incubated with antibodies for intracellular staining of IFN-γ and GrB (Table 6) at 1.0 μg/mL. After 1 hour incubation at 4° C., PBMCs were centrifuged and washed twice before being resuspended in FACS buffer. Stained PBMCs were analyzed by flow cytometry using a BD LSRFortessa X-20 Cell Analyzer (Becton Dickinson). BD Comp Beads (BD Biosciences) were used as compensation controls. CD8^+ and CD4^+ T cells were identified by gating on the live Aquamine ^−CD3^+CD8^+ and Aquamine-CD3+CD4^+ PBMC population respectively.
Flow cytometry data was analyzed using FlowJo Flow Cytometry Analysis Software v10 (TreeStar, Ashland, Oreg.). Data was exported and statistical analysis was performed using GraphPad Prism v6 (GraphPad Software, La Jolla, Calif.). Statistical significance relative to the DMSO control was calculated by two-tailed, paired t-test.
On the technique in general: A flow cytometer gives signals particle by particle.

The target of the next assay is PD-1/PD-L1 (Homo sapiens (Human), UniProt Q9NZQ7). In words: PD-1/PD-L1 biochemical protein-protein interaction assay (ALPHA). To be noted: 0.3 nM His tagged PD-L1, 2.5 nM biotinylated Fc-PD-1, 60 minutes at 25° C., read-out: IC50 PD-L1-PD1.
[2] abbreviates: 650 nM, HBV core peptide-stimulated PBMCs from 14 CHB donors.
Setting [3] is: PBMCs from 9 of the 14 CHB donors, compound 139 650 nM, durvalumab 10 μg/mL.
Where [4] appears, read: average over CHB donors (14 for compound 139, 9 for durvalumab).
[5] abbreviates: individual CHB donor, HBV core peptide-stimulated PBMCs, compound 139 at 650 nM.

“And” between values parts separate entries of the source, which are not always exact repeats. Equal values may be shown once.

PD-1/PD-L1, sequence (Q9NZQ7 19-238): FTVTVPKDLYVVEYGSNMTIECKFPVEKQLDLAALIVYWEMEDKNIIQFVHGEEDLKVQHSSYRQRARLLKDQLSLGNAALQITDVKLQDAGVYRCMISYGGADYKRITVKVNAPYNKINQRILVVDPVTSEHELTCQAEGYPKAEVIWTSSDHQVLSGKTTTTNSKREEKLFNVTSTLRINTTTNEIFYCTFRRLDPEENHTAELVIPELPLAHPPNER

On to `COc1nc(-c2cccc(-c3cccc(-c4cnc(CNC[C@@H]5CCC(=O)N5)c(OC)n4)c3Cl)c2Cl)cnc1CNC[C@@H]1CCC(=O)N1` [compound 139], for which, in assay [1] (setting [2]), the “increase of frequency of GrB^+ CD8^+ T cells compared with DMSO” value is reported as 1.2 fold and the “increase of frequency of IFN-γ^+ CD8^+ T cells compared with DMSO” value is 2.5 fold. Further, in assay [1] (setting [3]), the “increase of GrB^+ CD8^+ T cells, comparison with durvalumab” value came out at 1.2 fold and the “increase of IFN-γ^+ CD8^+ T cells, comparison with durvalumab” value is listed as 2.5 fold. Moreover, in assay [1] (setting [4]), the “% GrB+ (GrB+ CD8+ T cells), Average” value is reported as 33.68% and the “% IFN-γ+ (IFN-γ+ CD8+ T cells), Average” value was determined as 3.13%. Moreover, in assay [1] (setting [5]), the “% GrB+ (GrB+ CD8+ T cells)” value is 47.80% and 8.78% and 50.30% and 30.67% and 28.15% and 24.10% and 45.05% and 20.20% and 33.50% and 52.67% and 18.93% and 23.23% and 55.80% and 32.30%; the “% IFN-γ+ (IFN-γ+ CD8+ T cells)” value was 2.63% and 0.94% and 0.41% and 0.61% and 3.06% and 0.90% and 3.28% and 4.69% (2×) and 0.30% and 7.74% and 1.86% and 11.17% and 1.53%.

For `COc1nc(-c2cccc(-c3cccc(-c4cnc(CNC[C@H]5C[C@H](O)C5)c(OC)n4)c3Cl)c2Cl)ccc1CNC[C@@H]1CCC(=O)N1` [compound 656], the IC50 at PD-1/PD-L1 is 0.167 nM.

For the compound `COc1nc(-c2cccc(-c3cccc(-c4cnc(CN5CC(OCC(N)=O)C5)c(OC)n4)c3Cl)c2Cl)cnc1CN1CC(OCC(N)=O)C1` [compound 657], the half-maximal inhibitory concentration (IC50) on PD-1/PD-L1 stood at 0.064 nM.

For the compound `COc1nc(-c2cccc(-c3cccc(-c4cnc(CNC[C@@H]5CCC(=O)N5)c(OC)n4)c3Cl)c2Cl)cnc1CNCC1CCNC1=O` (stereo partly shown) [compound 658], the IC50 at PD-1/PD-L1 was 0.196 nM.

As to `COc1nc(-c2cccc(-c3cccc(-c4cnc(CNC[C@@H]5CCC(=O)N5)c(OC)n4)c3Cl)c2Cl)cnc1CNCC1CCNC(=O)C1` (stereo partly shown) [compound 659], the IC50 at PD-1/PD-L1 stood at 0.121 nM.

For the compound `COc1nc(-c2cccc(-c3cccc(-c4cnc(CNCC5CCNC(=O)C5)c(OC)n4)c3Cl)c2Cl)cnc1CNCC1CCNC(=O)C1` (stereo not shown) [compound 660], the IC50 at PD-1/PD-L1 is 0.135 nM.

With `COc1nc(-c2cccc(-c3cccc(-c4cnc(CNCC5CCNC5=O)c(OC)n4)c3Cl)c2Cl)cnc1CNCC1CCNC1=O` (stereo not shown) [compound 661], on PD-1/PD-L1, the half-inhibitory concentration (IC50) amounted to 0.064 nM.

As for `COc1nc(-c2cccc(-c3cccc(-c4cnc(CN5CC6(C5)CN(C(C)=O)C6)c(OC)n4)c3Cl)c2C)cnc1CN1CC2(C1)CN(C(C)=O)C2` [compound 662], on PD-1/PD-L1, the half-maximal inhibitory concentration (IC50) came to 0.082 nM.

With `COc1nc(-c2cccc(-c3cccc(-c4cnc(CN5CC[C@@H](CNC(C)=O)C5)c(OC)n4)c3Cl)c2Cl)cnc1CN1CC[C@@H](CNC(C)=O)C1` [compound 663], at PD-1/PD-L1, the IC50 was determined as 0.281 nM.

The term IC50 denotes the concentration needed to halve the response being measured.
